Experimental data published in US12162935B2, “Regimens, compositions and methods with capsaicin and TNF-alpha inhibitor” (priority 2018, dated 2024).

Key:
Wistar rats = test: ABR threshold shifts, noise induced hearing loss (NIHL); format: in vivo, rat
Method: Male Wistar rats (150-250 gm) were used for this study under an animal care protocol approved by the Laboratory and Animal Care and Use Committee (SIU School of Medicine). Pre-treatment ABRs were performed. Animals were then treated according to the experimental paradigm. Prevention strategy: consisted of administration of ETA either intra-tympanic ally (IT) (250 μg/50 μl) or subcutaneously (sc) (3 mg/kg) or PBS (IT-50 μl or sc-1 ml) either 3 days or 7 days prior to noise exposure (NE).
Animals were exposed to noise (NE), and then provided ETA treatments either IT or SC at either 2 h or 24 h post noise injury. Post treatment ABR thresholds were determined at 21 days post noise exposure and cochleae were excised for morphological, molecular and biochemical studies. Cochleae used for RNA preparations were flushed immediately with RNA later and kept in RNA later for 24 h at 4° C. Those used for immunohistochemical studies were perfused and fixed with 4% paraformaldehyde, while those used for Scanning electron microscopy (SEM) were perfused and fixed with 2.5% glutaraldehyde. Cochleae used for whole mounts were decalcified for 7-10 days in 100 mM EDTA at room temperature.
Male Wistar rats were exposed to octave band noise at 122 dB centered at 16 kHz for 1 h under isofluorane anesthesia, with the 3 inch silicon tubes attached to the high frequency transducer resting in the middle ear cavity. This exposure typically results in a 30-50 dB temporary threshold shift (measured as an immediate pre-to-post noise exposure shift in ABR thresholds) across all frequencies; with slightly more elevation at those frequencies around 16 kHz and 20-40 dB permanent threshold shift measured at 21 days post noise exposure at all frequencies. Acoustic stimuli are calibrated using a cloth model rat and a Bruel & Kjaer Pulse System with a ½ inch free-field microphone (B&K model 4191). Baseline noise levels in the test chamber (with background test noise turned off) are typically measured below 20 dB SPL in the 4-40 kHz range.
Pre-treatment ABR thresholds were determined using the high frequency Intelligent Hearing Systems (IHS) on naive rats prior to any treatment or noise exposure for each ear. Animals were tested with a stimulus intensity series that was initiated at 0 dB sound pressure level (SPL) and reached a maximum at 90 dB SPL. The stimulus intensity levels were increased in 10 dB increments, and the evoked ABR waveforms were observed on a video monitor. The auditory stimuli included tone bursts at 8, 16, and 32 kHz with a 10 msec plateau and a 1 msec rise/fall time presented at a rate of 5/sec. Threshold was defined as the lowest intensity capable of evoking a reproducible, visually detectable response with two distinct waveforms and minimum amplitude of 0.5 μV.
Preconditioning of the TRPV1 receptor in the rat cochlea by oral administration of capsaicin is shown here to protect from NIHL. Male Wistar rats weighing 200-250 gms were used. ABRs from naïve rats were recorded. Rats were then treated with oral phosphate buffered saline (PBS—1 ml) or capsaicin (1 ml of 20 mg/ml) starting 24 hrs prior to NE, on the day of NE, and 24 hrs post NE. The final ABRs were recorded 21 days post NE. Cochleae were collected for various biochemical tests and immunohistochemistry. At least 6 animals were used per treatment group. NE caused an ABR threshold shift of 21.6±1.7, 35.5±1.9 and 43.9±2.3 dB threshold shift at 8, 16 and 32 kHz respectively. Oral capsaicin treatment completely protects from NIHL (3.9±1.4, 6.1±1.8 and 8.9±2.1 dB threshold shift at 8, 16 and 32 kHz respectively), there is no significant change in ABR threshold shift compared to control. […] Statistical significance was calculated using one way ANOVA with Tukey's post-hoc analyses, p<0.05 (FIG. 16.A.).
ABR measurements were conducted in naïve male Wistar rats. […]

TRPV1 = TRPV1 (Homo sapiens, UniProt Q8NER1); test: Ca2+ imaging (Fluo-4AM) in HEKVR1 cells; format: cell-based; conditions: capsaicin 2.5 μM
Sequence of TRPV1 (Q8NER1 whole entry, species assumed): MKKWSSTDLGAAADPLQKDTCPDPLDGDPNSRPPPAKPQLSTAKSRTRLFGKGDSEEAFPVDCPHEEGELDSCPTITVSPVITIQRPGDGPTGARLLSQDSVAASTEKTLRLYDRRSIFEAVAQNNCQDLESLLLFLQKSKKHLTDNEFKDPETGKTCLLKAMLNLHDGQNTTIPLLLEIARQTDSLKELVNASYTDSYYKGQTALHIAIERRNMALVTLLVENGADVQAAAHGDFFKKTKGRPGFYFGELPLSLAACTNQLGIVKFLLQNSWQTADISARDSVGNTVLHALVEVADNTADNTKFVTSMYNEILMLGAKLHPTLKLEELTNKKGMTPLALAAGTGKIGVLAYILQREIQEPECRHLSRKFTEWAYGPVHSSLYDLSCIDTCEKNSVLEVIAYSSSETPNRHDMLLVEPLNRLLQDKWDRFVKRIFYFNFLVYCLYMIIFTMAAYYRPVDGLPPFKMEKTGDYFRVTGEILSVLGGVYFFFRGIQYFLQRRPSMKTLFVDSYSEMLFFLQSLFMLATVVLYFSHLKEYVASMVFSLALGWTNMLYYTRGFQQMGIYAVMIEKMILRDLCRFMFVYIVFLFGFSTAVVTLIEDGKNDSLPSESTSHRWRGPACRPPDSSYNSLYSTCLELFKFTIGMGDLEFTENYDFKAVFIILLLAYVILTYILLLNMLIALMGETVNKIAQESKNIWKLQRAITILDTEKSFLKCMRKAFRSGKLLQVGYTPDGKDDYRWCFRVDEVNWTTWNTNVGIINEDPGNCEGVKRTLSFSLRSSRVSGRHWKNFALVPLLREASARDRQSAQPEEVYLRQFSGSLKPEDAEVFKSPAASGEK
Source text: NE has been linked to immediate increase in ROS generation and persistent oxidative stress in the cochlea2, leading to generation of reactive oxygen species such as: hydroxyl […] (OH^−), superoxide anion (O^2—) and hydrogen peroxide (H2O2).

CB2 receptor = test: Immunoblotting for CB1 and CB2 receptors; format: cell-based, mouse; conditions: capsaicin 2.5 μM 24 h
Method: FIG. 10.A. UBOC-1 cells were treated with capsaicin (2.5 μM) for 24 h. Total protein was extracted and immunoblotting was performed for CB1 and CB2 receptors. B-actin was used for housekeeping and loading control. Capsaicin increased CB2 receptor staining. FIG. 10.B. Cochleae were harvested from rats treated with either oral PBS or oral capsaicin (20 mg/kg) for 24 h. Total RNA was harvested, converted to c-DNA and probed for CB2 receptor expression by q-PCR. GAPDH was used as housekeeping gene. […] FIG. 10.C. and FIG. 10.D. Cochleae were harvested from rats treated with PBS, fixed in 4% paraformaldehyde in PBS for 8 h. They were then decalcified in EDTA (10 mM), and mid modiolar sections of the cochleae were probed for the cannabinoid receptors subtypes, CB1 (FIG. 10.C.) and CB2 (FIG. 10.D.), while nuclei were stained with DAPI. Fluorescent images were obtained with a Leica confocal microscope. […] Magnification for OHC, spiral ganglion cells and stria vascularis (40×). Similar images were obtained from 3 different animals.
Total cell lysates were prepared using ice-cold lysis buffer containing 50 mM Tris HCl, 10 mM MgCl2 and 1 mM EDTA in the presence of protease inhibitors mixture and phosphatase inhibitor 1 (1:100) (Sigma, St. Louis, MO). The lysates were kept on ice for 5 min followed by centrifugation. The clear supernatant was transferred to a clean tube and discarded the pellet. […]

[1] = oral capsaicin 24 hrs prior, day of and 24 hrs post NE, 21 days post NE

COc1cc(CNC(=O)CCCC/C=C/C(C)C)ccc1O [capsaicin, 8-methyl-N-vanillyl-trans-6-nonenamide] was tested, and the “Wave 1 amplitude versus sound intensity” value (Wistar rats; capsaicin 5 mg/kg oral, ETA 1 mg/kg, noise exposure (FIG. 18.B)) was “partial restoration”, the NE threshold shift (Wistar rats; intra-tympanic or oral capsaicin, 21 days after NE) was “abrogated” and the “ABR threshold shift at 8 kHz” value (Wistar rats; [1]) was 3.9±1.4 dB. The “ABR threshold shift at 16 kHz” value (Wistar rats; [1]) was 6.1±1.8 dB, the “ABR threshold shift at 32 kHz” value (Wistar rats; [1]) was 8.9±2.1 dB and the “ABR threshold shift at 8 kHz” value (Wistar rats; oral capsaicin alone, no NE) was 1±1.1 dB. The “ABR threshold shift at 16 kHz” value (Wistar rats; oral capsaicin alone, no NE) was 1±1.1 dB, the “ABR threshold shift at 32 kHz” value (Wistar rats; oral capsaicin alone, no NE) was 3±1.6 dB and the “increase in Ca^2+ over basal fluorescence” value (TRPV1) was 741±22%. For the same compound, the CB2 expression (CB2 receptor) was “increased CB2 expression”.
